Measurements taken from patent US20240101569A1, “SALT CRYSTALS” (INTRA-CELLULAR THERAPIES, INC., priority 2021, published 2024).

Legend:
[1] = Pharmacokinetics study of succinate salt crystals in dogs; format: in vivo; conditions: 5 mg/kg orally, plasma; for DN AUC0-24 / DN Cmax: dose-normalised; for Cmax / Tmax / half-life / AUC(0-t): dog, po; for AUC(0-t): read-out: AUC0-24
Procedure: The succinate salt of 2-(4-acetylbenzyl)-3-((4-fluorophenyl)amino)-5,7,7-trimethyl-7,8-dihydro-2H-imidazo[1,2-a]pyrazolo[4,3-e]pyrimidin-4(5H)-one is administered to dogs at a dose of 5 mg/kg orally. A separate group of dogs is administered 2-(4-acetylbenzyl)-3-((4-fluorophenyl)amino)-5,7,7-trimethyl-7,8-dihydro-2H-imidazo[1,2-a]pyrazolo[4,3-e]pyrimidin-4(5H)-one free base 5 mg/kg orally. The analysis of drug concentration in plasma samples collected is analyzed.
The pharmacokinetic (PK) parameters are determined from the plasma concentration versus time data by non-compartmental methods with uniform weighting. The maximum observed concentration (Cmax) and the time of the maximum observed concentration (Tmax) are obtained from the bioanalytical raw data. The area-under-the-plasma concentration-time curve from time zero to the time of the last measurable sample (AUC) is calculated by the trapezoidal rule.

[2] = Solubility study of free base crystalline and succinate salt crystalline forms (pH titration, chase equilibrium); format: physicochemical; conditions: water, thermodynamic from solid, aqueous, titration with UV-turbidity probe
Text: The solubilities of free base crystalline and succinate salt crystalline forms of 2-(4-acetylbenzyl)-3-((4-fluorophenyl)amino)-5,7,7-trimethyl-7,8-dihydro-2H-imidazo[1,2-a]pyrazolo[4,3-e]pyrimidin-4(5H)-one are compared. Samples are titrated in water or in a minimum of three titrations under co-solvent conditions from the pH where the sample is fully dissolved. The sample precipitates from solution are detected by a UV-turbidity probe, which corresponds to a kinetic solubility. After precipitation, base and acid titrants are alternately added to drive the sample back and forth across the equilibrium solubility of the neutral species (the intrinsic solubility). At this point, the samples would exist in a supersaturated or subsaturated state (i.e. chase equilibrium). The intrinsic solubilities are determined from the pH between the supersaturated and subsaturated states corresponding to an intrinsic solubility. The samples can be determined by extrapolation to aqueous media, when co-solvent conditions are used.
This degree of aqueous solubility predicts faster dissolution rates in vitro and in vivo.

[3] = system: phosphodiesterase 1 (PDE 1); conditions: statement, no values; cited from earlier work
[4] = Solid-state properties of succinate salt crystals (stated in words); format: physicochemical

CC(=O)c1ccc(Cn2nc3c(c2Nc2ccc(F)cc2)C(=O)N(C)C2=NC(C)(C)CN23)cc1 [Free Base, 2-(4-acetylbenzyl)-3-((4-fluorophenyl)amino)-5,7,7-trimethyl-7,8-dihydro-2H-imidazo[1,2-a]pyrazolo[4,3-e]pyrimidin-4(5H)-one]
DN AUC0-24 [1]: 304.6 [ng · hr/mL]/[mg/kg]
DN Cmax [1]: 41 [ng/mL]/[mg/kg]
Cmax [1]: 205 ng/mL
Tmax [1]: 1.3 h
half-life [1]: 6.8 h
AUC(0-t) [1]: 1520 ng·h/mL
solubility [2]: 285 µg/mL
PDE1 inhibition (in words) [3]: potent and selective

CC(=O)c1ccc(Cn2nc3c(c2Nc2ccc(F)cc2)C(=O)N(C)C2=NC(C)(C)CN23)cc1.O=C(O)CCC(=O)O [Succinate Salt, 2-(4-acetylbenzyl)-3-((4-fluorophenyl)amino)-5,7,7-trimethyl-7,8-dihydro-2H-imidazo[1,2-a]pyrazolo[4,3-e]pyrimidin-4(5H)-one succinate]
hygroscopicity [4]: low hygroscopicity
solubility (in words) [4]: good solubility
stability [4]: particularly stable
DN AUC0-24 [1]: 331.9 [ng · hr/mL]/[mg/kg]
DN Cmax [1]: 123.8 [ng/mL]/[mg/kg]
Cmax [1]: 619 ng/mL
Tmax [1]: 0.4 h
half-life [1]: 7 h
AUC(0-t) [1]: 1660 ng·h/mL
solubility [2]: ~7000 µg/mL
